Consider four molecules from ChEMBL document CHEMBL1134894, “Fused azaindole derivatives: molecular design, synthesis and in vitro pharmacology leading to the preferential dopamine D3 receptor agonist FAUC 725” (Bioorg Med Chem Lett, 2002).

Experiment [1] has as its target T1, D(2) dopamine receptor (Homo sapiens, UniProt P14416). Put plainly: Binding affinity of compound measured using [3H]spiperone for the cloned human dopamine receptor D2 long (high/low affinity is given as 230/53000).
Experiment [2] addresses T2, D(2) dopamine receptor (Bos taurus, UniProt P20288). Put plainly: Binding affinity of compound against Dopamine receptor D2 was measured using [3H]pramipexole in Bovine striatal membranes. Type of experiment: cell membranes, Striatum, Membrane.
Experiment [3] addresses T3, D(4) dopamine receptor (Homo sapiens, UniProt P21917).
T3 sequence (P21917 whole entry): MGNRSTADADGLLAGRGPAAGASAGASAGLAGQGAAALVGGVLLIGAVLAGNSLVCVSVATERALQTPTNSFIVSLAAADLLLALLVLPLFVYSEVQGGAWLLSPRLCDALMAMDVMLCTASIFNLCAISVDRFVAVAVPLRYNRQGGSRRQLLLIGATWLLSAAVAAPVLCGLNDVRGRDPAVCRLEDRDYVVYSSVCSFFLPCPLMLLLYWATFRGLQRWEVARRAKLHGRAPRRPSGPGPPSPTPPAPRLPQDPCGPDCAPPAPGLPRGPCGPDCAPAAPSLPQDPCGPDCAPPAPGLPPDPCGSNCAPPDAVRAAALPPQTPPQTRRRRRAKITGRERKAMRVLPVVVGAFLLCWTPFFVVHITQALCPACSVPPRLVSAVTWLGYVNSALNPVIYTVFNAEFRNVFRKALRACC
Put plainly: Binding affinity of compound measured using [3H]spiperone for the cloned human dopamine receptor D4.4 (high/low affinity is given as 87/23000).

Experiment [4] concerns the target T4, D(2) dopamine receptor (Rattus norvegicus, UniProt P61169). Put plainly: Effective concentration required for agonistic activity against rat D2 long receptor. The format is functional.
For experiment [5], the target named is T4, D(2) dopamine receptor. Briefly: Effective concentration required for agonistic activity against rat D2 short receptor. The format is functional.
For experiment [6], the target named is T1, D(2) dopamine receptor. Put plainly: Binding affinity of compound measured using [3H]spiperone for the cloned human dopamine receptor D2 short (high/low affinity is given as 130/50000).
A further experiment has as its target D(1A) dopamine receptor (Bos taurus, UniProt Q95136). Put plainly: Binding affinity of compound measured against Dopamine receptor D1 from bovine striatal membranes using radioligand [3H]-SCH- 23390.
Experiment [7] has as its target T5, D(3) dopamine receptor (Homo sapiens, UniProt P35462). Briefly: Effective concentration required for agonistic activity against human D3 receptor. The format is functional.
Experiment [8] concerns the target T3, D(4) dopamine receptor. Put plainly: Effective concentration required for agonistic activity against human D4.2 receptor. The format is functional.
Experiment [9] concerns the target T5, D(3) dopamine receptor.
Description: Binding affinity of compound measured using [3H]spiperone for the cloned human Dopamine receptor D3 (high/low affinity is given as 16/16000)
Experiment [10] addresses T4, D(2) dopamine receptor. Put plainly: Effective concentration required for agonistic activity against rat Dopamine receptor D2L. Type of experiment: functional.
Experiment [11] addresses T5, D(3) dopamine receptor. Put plainly: Effective concentration required for agonistic activity against human Dopamine receptor D3.
Experiment [12] deals with T5, D(3) dopamine receptor. The source holds these as a separate data set.
Experiment [13] deals with T3, D(4) dopamine receptor. Put plainly: Binding affinity of compound measured using [3H]spiperone for the cloned human dopamine receptor D4.4 (high/low affinity is given as 50/2200).
Experiment [14] concerns the target T1, D(2) dopamine receptor. Put plainly: Binding affinity of compound measured using [3H]spiperone for the cloned human Dopamine receptor D2L (high/low affinity is given as 85/6400).
In experiment [15] the target is T1, D(2) dopamine receptor. Briefly: Binding affinity of compound measured using [3H]spiperone for the cloned human dopamine receptor D2 short (high/low affinity is given as 35/3700).
Experiment [16] concerns the target T2, D(2) dopamine receptor.
For experiment [17], the target named is T3, D(4) dopamine receptor. Put plainly: Binding affinity of compound measured using [3H]spiperone for the cloned human dopamine receptor D4.4 (high/low affinity is given as 16/1300).

Molecules are shown by their SMILES.

T5 sequence (P35462 whole entry): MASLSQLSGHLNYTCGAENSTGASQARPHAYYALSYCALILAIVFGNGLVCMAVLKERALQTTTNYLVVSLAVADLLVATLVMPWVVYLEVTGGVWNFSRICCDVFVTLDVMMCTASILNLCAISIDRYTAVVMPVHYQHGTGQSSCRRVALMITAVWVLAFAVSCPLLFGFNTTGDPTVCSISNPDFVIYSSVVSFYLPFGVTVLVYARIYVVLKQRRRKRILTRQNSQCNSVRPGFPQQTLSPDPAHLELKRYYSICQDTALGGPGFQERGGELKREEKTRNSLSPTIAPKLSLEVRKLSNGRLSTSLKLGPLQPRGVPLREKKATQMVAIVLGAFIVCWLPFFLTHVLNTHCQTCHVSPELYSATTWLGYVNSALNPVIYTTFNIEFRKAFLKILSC
T4 sequence (P61169 whole entry): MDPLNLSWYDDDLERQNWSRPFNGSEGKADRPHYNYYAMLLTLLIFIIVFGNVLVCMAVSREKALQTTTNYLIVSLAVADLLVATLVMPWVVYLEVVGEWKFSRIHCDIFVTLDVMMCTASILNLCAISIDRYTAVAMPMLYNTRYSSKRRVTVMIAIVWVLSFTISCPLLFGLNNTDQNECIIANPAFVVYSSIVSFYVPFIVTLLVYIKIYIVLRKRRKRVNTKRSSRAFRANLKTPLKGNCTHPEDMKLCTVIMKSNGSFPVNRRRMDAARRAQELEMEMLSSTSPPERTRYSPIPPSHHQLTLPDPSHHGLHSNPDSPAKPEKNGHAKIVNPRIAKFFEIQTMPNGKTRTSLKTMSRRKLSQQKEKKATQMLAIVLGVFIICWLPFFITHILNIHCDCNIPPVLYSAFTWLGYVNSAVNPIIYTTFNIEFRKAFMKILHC
T1 sequence (P14416 whole entry): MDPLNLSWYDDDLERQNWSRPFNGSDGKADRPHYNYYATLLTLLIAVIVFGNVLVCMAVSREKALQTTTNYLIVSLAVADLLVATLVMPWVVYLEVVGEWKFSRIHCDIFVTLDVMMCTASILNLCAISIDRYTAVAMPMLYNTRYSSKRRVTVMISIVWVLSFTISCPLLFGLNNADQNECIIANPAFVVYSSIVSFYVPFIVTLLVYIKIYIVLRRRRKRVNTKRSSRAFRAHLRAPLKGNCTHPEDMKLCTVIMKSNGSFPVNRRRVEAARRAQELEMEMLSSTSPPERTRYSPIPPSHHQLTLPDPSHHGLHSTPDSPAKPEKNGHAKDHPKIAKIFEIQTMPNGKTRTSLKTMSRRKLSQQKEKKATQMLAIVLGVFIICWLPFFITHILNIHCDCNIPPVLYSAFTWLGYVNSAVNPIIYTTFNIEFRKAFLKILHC
T2 sequence (P20288 whole entry): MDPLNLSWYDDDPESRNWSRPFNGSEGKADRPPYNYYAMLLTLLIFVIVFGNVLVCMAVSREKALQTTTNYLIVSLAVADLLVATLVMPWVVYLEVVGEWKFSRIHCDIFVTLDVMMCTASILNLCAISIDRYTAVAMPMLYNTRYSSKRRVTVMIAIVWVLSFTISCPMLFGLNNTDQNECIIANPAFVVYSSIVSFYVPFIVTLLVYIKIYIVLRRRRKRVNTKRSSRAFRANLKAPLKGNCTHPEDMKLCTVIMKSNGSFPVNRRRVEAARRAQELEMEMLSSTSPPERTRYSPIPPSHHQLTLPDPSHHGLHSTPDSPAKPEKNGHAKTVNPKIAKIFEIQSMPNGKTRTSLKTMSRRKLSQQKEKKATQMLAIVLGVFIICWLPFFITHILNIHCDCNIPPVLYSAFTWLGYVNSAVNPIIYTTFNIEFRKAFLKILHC
Chain of D(1A) dopamine receptor (Q95136 whole entry): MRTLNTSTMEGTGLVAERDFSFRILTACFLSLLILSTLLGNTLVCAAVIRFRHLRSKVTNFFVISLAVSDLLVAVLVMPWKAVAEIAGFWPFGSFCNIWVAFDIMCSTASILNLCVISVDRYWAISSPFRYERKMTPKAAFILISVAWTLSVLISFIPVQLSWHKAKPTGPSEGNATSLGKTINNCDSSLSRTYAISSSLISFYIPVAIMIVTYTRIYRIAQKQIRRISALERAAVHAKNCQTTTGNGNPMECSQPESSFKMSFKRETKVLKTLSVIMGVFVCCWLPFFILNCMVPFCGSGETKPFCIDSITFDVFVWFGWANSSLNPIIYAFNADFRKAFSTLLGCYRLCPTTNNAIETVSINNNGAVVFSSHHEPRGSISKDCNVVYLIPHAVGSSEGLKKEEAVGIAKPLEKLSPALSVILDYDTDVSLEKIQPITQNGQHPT

Take `CCCN1CCc2nn3ccccc3c2C1`: the inhibitory constant (Ki) at D(2) dopamine receptor [1] amounted to 0.23 µM; on D(2) dopamine receptor [2], 3.1 µM; at D(4) dopamine receptor [3] it was 0.087 µM; on D(2) dopamine receptor [6], 0.13 µM; at D(1A) dopamine receptor, 21 µM; at D(3) dopamine receptor [9], 0.016 µM. Besides, the 50% effective concentration (EC50) at D(2) dopamine receptor [4], at D(2) dopamine receptor [5], at D(3) dopamine receptor [7] and at D(4) dopamine receptor [8] was more than 1 µM in each case.
For the molecule `CCCN(CCC)[C@H]1CCc2nn3ccccc3c2C1`, the concentration for a half-maximal effect (EC50) on D(2) dopamine receptor [10] is 0.016 µM; on D(3) dopamine receptor [11], 0.0028 µM; at D(2) dopamine receptor [5], 0.047 µM; at D(4) dopamine receptor [8], 0.43 µM. Further, the Ki on D(2) dopamine receptor [2] was 0.0086 µM; on D(3) dopamine receptor [12] it was 0.00054 µM; on D(4) dopamine receptor [13] it was 0.05 µM; at D(2) dopamine receptor [14], 0.085 µM; at D(1A) dopamine receptor, 18 µM; on D(2) dopamine receptor [15] it was 0.035 µM.
On D(2) dopamine receptor [16], `CCCN[C@H]1CCc2nc(N)sc2C1` [PRAMIPEXOLE] registered a Kd of 0.0016 µM.
Regarding `CCCN1CCC[C@@H](c2cccc(O)c2)C1` [PRECLAMOL], the Ki at D(4) dopamine receptor [17] turned out to be 0.016 µM; on D(2) dopamine receptor [2] it was 0.052 µM. This molecule showed a concentration for a half-maximal effect (EC50) on D(4) dopamine receptor [8] of 0.06 µM.
